ChEMBL document CHEMBL1129482, “Synthesis and anti-herpes virus activity of 2'-deoxy-4'-thiopyrimidine nucleosides” (J Med Chem, 1996)

Legend:
[1] = Inhibitory activity against herpes simplex virus type 2 (HSV 2) strain 186 in Vero cells.; format: functional, cell-based
[2] = tested on: Human betaherpesvirus 5; assay: Inhibitory activity against human cytomegalovirus (HCMV) strain AD169 in MRC-5 cells.; format: functional, organism-based; details: Human betaherpesvirus 5, MRC5
[3] = tested on: Vero; assay: Inhibitory dose required to reduce the growth of vero cells by 50% over a 4 day period.; format: functional, Chlorocebus sabaeus
[4] = tested on: Human alphaherpesvirus 1; assay: Inhibitory activity against herpes simplex virus type 1 (HSV-1) strain SC16 in Vero cells.; format: functional, organism-based; details: Human alphaherpesvirus 1, Vero
[5] = tested on: Human alphaherpesvirus 3; assay: Inhibitory activity against varicella zoster virus (VZV) strain G31 in MRC-5 cells.; format: functional, organism-based; details: Human alphaherpesvirus 3, MRC5
[6] = tested on: Vero; assay: Inhibitory dose required to reduce the growth of Vero cells by 50% over a 4 day period; format: functional, Chlorocebus sabaeus
[7] = tested on: MRC5; assay: Inhibitory activity against varicella zoster virus (VZV) strain G31 was determined in MRC-5 cells; Toxicity at 40 uM; format: functional, cell-based, Homo sapiens
[8] = tested on: Vero; assay: Inhibitory activity against herpes simplex virus type 1 (HSV 1) strain SC16 was determined in Vero cells; Range is 0.17-0.5 uM; format: functional, cell-based; details: Chlorocebus sabaeus
[9] = tested on: Vero; assay: Inhibitory activity against herpes simplex virus type 2 (HSV 2) strain 186 was determined in Vero cells; Range is 2-5 uM; format: functional, cell-based; details: Chlorocebus sabaeus

IC50 [1] [µM] | IC50 [4] [µM] | SMILES | IC50 [2] [µM] | CCID50 [3] [µM] | IC50 [5] [µM] | CCID50 [6] [µM] | IC50 [7] | IC50 [8] [µM] | IC50 [9] [µM]
> 100 |  | CC(C)(C)c1cn([C@H]2CC(O)C(CO)S2)c(=O)[nH]c1=O (stereo partly specified) | > 100 | 475 |  |  |  |  | 
> 100 | 0.5 | O=c1[nH]c(=O)n([C@H]2CC(O)C(CO)S2)cc1/C=C/Cl (stereo partly specified) | > 100 | >500 | > 10 |  |  |  | 
> 100 | 3.4 | C=C(C)c1cn([C@H]2CC(O)C(CO)S2)c(=O)[nH]c1=O (stereo partly specified) | > 100 |  | < 40 | >500 |  |  | 
> 100 | 0.7 | O=c1[nH]c(=O)n([C@H]2CC(O)C(CO)S2)cc1CCF (stereo partly specified) | > 100 | >500 | 0.12 |  |  |  | 
27 | 18 | O=c1[nH]c(=O)n([C@H]2CC(O)C(CO)S2)cc1[N+](=O)[O-] (stereo partly specified) |  | 476 | 13 |  |  |  | 
> 100 |  | O=C1NC(=O)N(C2CC(O)C(CO)S2)C2CCCC12 (stereo unspecified) | > 100 | >500 | > 40 |  |  |  | 
> 100 | > 100 | O=c1[nH]c(=O)n([C@H]2CC(O)C(CO)S2)cc1C12CC3CC(CC(C3)C1)C2 (stereo partly specified) | > 100 | >125 |  |  | Toxic |  | 
> 100 |  | O=c1[nH]c(=O)n([C@H]2CC(O)C(CO)S2)cc1CC(F)(F)F (stereo partly specified) | > 100 | >500 | > 40 |  |  |  | 
> 100 | > 100 | COc1cn(C2CC(O)C(CO)S2)c(=O)[nH]c1=O (stereo unspecified) | > 100 |  | > 100 |  |  |  | 
> 100 | > 100 | O=c1[nH]c(=O)n([C@@H]2CC(O)C(CO)S2)cc1[N+](=O)[O-] (stereo partly specified) |  |  | > 100 |  |  |  | 
> 100 |  | COCCc1cn([C@H]2CC(O)C(CO)S2)c(=O)[nH]c1=O (stereo partly specified) | > 100 |  | > 10 |  |  |  | 
> 100 | > 100 | C#CCc1cn([C@H]2CC(O)C(CO)S2)c(=O)[nH]c1=O (stereo partly specified) | 100 | 492 | 1.4 |  |  |  | 
> 100 | > 100 | N#Cc1cn([C@H]2CC(O)C(CO)S2)c(=O)[nH]c1=O (stereo partly specified) | > 100 | >500 | > 100 |  |  |  | 
> 10 | 6.6 | C#Cc1cn([C@H]2CC(O)C(CO)S2)c(=O)[nH]c1=O (stereo partly specified) | 9.3 | 33 | 5.5 |  |  |  | 
> 100 | 40 | CC(O)c1cn(C2CC(O)C(CO)S2)c(=O)[nH]c1=O (stereo unspecified) | > 100 | >500 | 12 |  |  |  | 
> 20 | > 2 | C/C=C/c1cn([C@H]2CC(O)C(CO)S2)c(=O)[nH]c1=O (stereo partly specified) | > 100 | >100 | 0.46 |  |  |  | 
15 | < 1.6 | O=c1[nH]c(=O)n([C@H]2CC(O)C(CO)S2)cc1C(F)(F)F (stereo partly specified) | > 10 | 139 |  |  |  |  | 
10 | 0.8 | O=c1[nH]c(=O)n([C@H]2CC(O)C(CO)S2)cc1I (stereo partly specified) | 4 | >100 | 3.5 |  |  |  | 
> 100 |  | CCC(C)c1cn(C2CC(O)C(CO)S2)c(=O)[nH]c1=O (stereo unspecified) | > 100 | >500 |  |  |  |  | 

IC50 [1] [µM] | IC50 [4] [µM] | SMILES | IC50 [2] [µM] | CCID50 [3] [µM] | IC50 [5] [µM] | CCID50 [6] [µM] | IC50 [7] | IC50 [8] [µM] | IC50 [9] [µM]
> 100 | > 100 | COC(C)c1cn(C2CC(O)C(CO)S2)c(=O)[nH]c1=O (stereo unspecified) | > 100 | >500 | > 40 |  |  |  | 
> 100 |  | CSCc1cn(C2CC(O)C(CO)S2)c(=O)[nH]c1=O (stereo unspecified) | > 100 | >500 |  |  |  |  | 
> 100 |  | O=c1[nH]c(=O)n([C@H]2CC(O)C(CO)S2)cc1C=C(F)F (stereo partly specified) | > 100 | >500 | > 10 |  |  |  | 
> 100 | 0.15 | O=c1[nH]c(=O)n(C2CC(O)C(CO)S2)cc1CCCl (stereo unspecified) |  | >200 | 0.3 |  |  |  | 
> 10 | 6.8 | CCCc1cn([C@H]2CC(O)C(CO)S2)c(=O)[nH]c1=O (stereo partly specified) | > 100 | >100 | 3 |  |  |  | 
> 100 | 5.3 | O=c1[nH]c(=O)n([C@H]2CC(O)C(CO)S2)cc1Br (stereo partly specified) | 0.44 | >500 | > 40 |  |  |  | 
> 100 |  | CCc1cn([C@@H]2CC(O)C(CO)S2)c(=O)[nH]c1=O (stereo partly specified) | > 100 | >100 | > 100 |  |  |  | 
> 10 | > 10 | COCc1cn(C2CC(O)C(CO)S2)c(=O)[nH]c1=O (stereo unspecified) | > 100 |  | > 10 |  |  |  | 
 | > 50 | O=c1[nH]c(=O)n([C@H]2CC(O)C(CO)S2)cc1C(F)=C(Cl)Cl (stereo partly specified) | > 100 | >500 | > 100 |  |  |  | 
> 10 | > 10 | O=c1[nH]c(=O)n(C2CC(O)C(CO)S2)cc1F (stereo unspecified) | > 100 | 92 | > 100 |  |  |  | 
> 10 | > 10 | CC(=O)c1cn(C2CC(O)C(CO)S2)c(=O)[nH]c1=O (stereo unspecified) | > 100 | 351 | > 10 |  |  |  | 
> 100 | 1.4 | C=Cc1cn([C@H]2CC(O)C(CO)S2)c(=O)[nH]c1=O (stereo partly specified) | 93 | >500 | 1.1 |  |  |  | 
> 100 | > 100 | O=c1[nH]c(=O)n([C@H]2CC(O)C(CO)S2)cc1Cl (stereo partly specified) | 0.2 | 59 | > 40 |  |  |  | 
 |  | CCc1cn([C@H]2CC(O)C(CO)S2)c(=O)[nH]c1=O (stereo partly specified) | 138 | >100 | 0.99 |  |  | 0.17 | 2
> 100 |  | O=c1[nH]c(=O)n([C@@H]2CC(O)C(CO)S2)cc1C(F)(F)F (stereo partly specified) | > 100 | >500 |  |  |  |  | 
> 100 | 1.6 | O=c1[nH]c(=O)n([C@H]2CC(O)C(CO)S2)cc1C1CC1 (stereo partly specified) | > 100 | >500 | 0.5 |  |  |  | 
> 100 | 2.2 | CC(C)c1cn([C@H]2CC(O)C(CO)S2)c(=O)[nH]c1=O (stereo partly specified) | > 100 | >500 | 4.1 |  |  |  | 
1.7 | 1.8 | Nc1nc2c(ncn2COCCO)c(=O)[nH]1 [ACYCLOVIR] | > 85 | >500 |  |  |  |  | 
12.8 | 3.9 | Nc1nc(O)c2ncn(CCC(CO)CO)c2n1 [PENCICLOVIR] | > 100 |  | 78.7 |  |  |  | 

SMILES | IC50 [1] [µM] | IC50 [4] [µM] | IC50 [2] [µM] | CCID50 [3] [µM] | IC50 [5] [µM] | CCID50 [6] [µM] | IC50 [7] | IC50 [8] [µM] | IC50 [9] [µM]
O=c1[nH]c(=O)n([C@H]2C[C@H](O)[C@@H](CO)O2)cc1/C=C/Br [BRIVUDINE] | 10 | 1.4 | > 100 | >250 | < 1 |  |  |  | 
